The record followed here is ChEMBL document CHEMBL3091447, “The effect of pyridyl substituents on the thermodynamics of porphyrin binding to G-quadruplex DNA” (Bioorg Med Chem, 2013).

Assay [1] is filed under the species Homo sapiens. The assay is described as follows: Binding affinity to WT 27-mer Bcl-2 G-quadruplex DNA (unknown origin) at compound/DNA ratio 1 to 4 by CD spectral analysis.
For assay [2], the species on record is Homo sapiens. The assay is described as follows: Binding affinity to WT 27-mer Bcl-2 G-quadruplex DNA (unknown origin) at 5 uM by isothermal titration calorimetric assay. Background: In ITC the heat of successive injections is recorded.
Assay [3] is filed under the species Homo sapiens. The assay is described as follows: Binding affinity to Bcl-2 G-quadruplex DNA (unknown origin) at compound/DNA ratio 2:1 by CD spectral analysis.
Assay [4] is filed under the species Homo sapiens. The assay is described as follows: Binding affinity to WT 27-mer Bcl-2 G-quadruplex DNA (unknown origin) at 40 uM by electrospray ionization mass spectra analysis.

Activity calls are given as the source filed them. The calls are words filed in the database; no cut-off is given here.

`C[n+]1ccc(-c2c3nc(c(-c4cc[n+](C)cc4)c4ccc([nH]4)c(-c4cc[n+](C)cc4)c4nc(cc5ccc2[nH]5)C=C4)C=C3)cc1`: the outcome in the assay listed under Homo sapiens [1], in the assay listed under Homo sapiens [2], in the assay filed under Homo sapiens [3] and in the assay filed under Homo sapiens [4] was Active.
Take `C[n+]1ccc(-c2c3nc(cc4ccc([nH]4)c(-c4cc[n+](C)cc4)c4nc(cc5ccc2[nH]5)C=C4)C=C3)cc1`: the outcome in the assay filed under Homo sapiens [2], in the assay filed under Homo sapiens [3] and in the assay filed under Homo sapiens [4] was Active.
For `C[n+]1ccc(-c2c3nc(cc4ccc(cc5nc(cc6ccc2[nH]6)C=C5)[nH]4)C=C3)cc1`, in the assay filed under Homo sapiens [4], the result was inactive.
Take `C[n+]1ccc(-c2c3nc(cc4ccc(cc5nc(c(-c6cc[n+](C)cc6)c6ccc2[nH]6)C=C5)[nH]4)C=C3)cc1`: in the assay filed under Homo sapiens [4], the outcome was inactive.
As to `C[n+]1ccc(-c2c3nc(c(-c4cc[n+](C)cc4)c4ccc([nH]4)c(-c4cc[n+](C)cc4)c4ccc([nH]4)c(-c4cc[n+](C)cc4)c4nc2C=C4)C=C3)cc1`, the outcome in the assay listed under Homo sapiens [3] was Active.
